Test system: Bacillus subtillis
Test: microorganisms counting in inoculated fish matrix (fish model)
Settings: D14, 25° C., positive control at 0.3%, average of two determinations
Method: Fish matrix was made of fish and water (50/50), without preservatives. The matrix was homogenized in a blade mixer grinder and then sterilized at 121° C. for 20 minutes, prior the tests.
Blends were added at 0.5 % into the matrix. Matrices without preservatives (0.5 % of NaCl 0.9%) and matrices with conventional chemical preservatives (0.3% of sodium lactate or potassium nitrite, separately) were used as negative and positive control, respectively.
Each matrix type was portioned into sterile flasks and inoculated with 3 Log CFU/g of different microorganisms, separately. Each flask corresponds to one sample at a given date of analysis.
The inoculated matrices were incubated at 25° C.
The counting of the microorganisms was determined in specific agar medium.

Compound	Bacillus subtillis spores (Bacillus subtillis totaux - Bacillus subtillis vegetative cells)	Bacillus subtillis totaux (vegetative cells + spores)
O=N[O-].[K+] [Potassium nitrite]	2.39 Log CFU/g	2.60 Log CFU/g
CC(O)C(=O)[O-].[Na+] (stereo not shown) [Sodium lactate]	2.35 Log CFU/g	2.90 Log CFU/g
